Reference: ChEMBL document CHEMBL1153078, “Design and synthesis of acetamido tri- and tetra-hydroxyazepanes: potent and selective beta-N-acetylhexosaminidase inhibitors” (Bioorg Med Chem, 2009)
Activity calls are given as the source filed them. The rule behind the calls is not given here.

Experiments:
[1] = system: Aspergillus oryzae; assay: Inhibition of Aspergillus oryzea beta-xylosidase at 1 mM
[2] = biological target: T1, Tissue alpha-L-fucosidase (Bos taurus) (UniProt Q2KIM0); assay: Inhibition of bovine epididymis alpha-L-fucosidase at 1 mM
T1 sequence (whole entry): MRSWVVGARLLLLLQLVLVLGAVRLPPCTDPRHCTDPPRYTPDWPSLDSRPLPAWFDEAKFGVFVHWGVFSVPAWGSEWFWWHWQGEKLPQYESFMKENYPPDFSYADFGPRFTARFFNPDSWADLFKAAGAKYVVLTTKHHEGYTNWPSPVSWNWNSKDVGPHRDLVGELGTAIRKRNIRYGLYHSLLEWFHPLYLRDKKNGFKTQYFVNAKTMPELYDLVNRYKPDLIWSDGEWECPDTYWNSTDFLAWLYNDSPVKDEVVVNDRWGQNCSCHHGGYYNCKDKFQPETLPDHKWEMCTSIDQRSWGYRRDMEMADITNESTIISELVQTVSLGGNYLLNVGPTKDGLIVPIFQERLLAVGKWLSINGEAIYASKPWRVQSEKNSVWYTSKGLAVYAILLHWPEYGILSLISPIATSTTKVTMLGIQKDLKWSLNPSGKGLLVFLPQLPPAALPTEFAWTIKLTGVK

[3] = system: Oryza sativa; assay: Inhibition of rice alpha-glucosidase at 1 mM
[4] = Inhibition of jack bean beta-N-acetylglucosaminidase; parameters: species or system Canavalia ensiformis
[5] = biological target: T2, Beta-galactosidase (Aspergillus oryzae) (UniProt Q2U7N3); assay: Inhibition of Aspergillus oryzea beta-galactosidase at 1 mM
T2 sequence (whole entry): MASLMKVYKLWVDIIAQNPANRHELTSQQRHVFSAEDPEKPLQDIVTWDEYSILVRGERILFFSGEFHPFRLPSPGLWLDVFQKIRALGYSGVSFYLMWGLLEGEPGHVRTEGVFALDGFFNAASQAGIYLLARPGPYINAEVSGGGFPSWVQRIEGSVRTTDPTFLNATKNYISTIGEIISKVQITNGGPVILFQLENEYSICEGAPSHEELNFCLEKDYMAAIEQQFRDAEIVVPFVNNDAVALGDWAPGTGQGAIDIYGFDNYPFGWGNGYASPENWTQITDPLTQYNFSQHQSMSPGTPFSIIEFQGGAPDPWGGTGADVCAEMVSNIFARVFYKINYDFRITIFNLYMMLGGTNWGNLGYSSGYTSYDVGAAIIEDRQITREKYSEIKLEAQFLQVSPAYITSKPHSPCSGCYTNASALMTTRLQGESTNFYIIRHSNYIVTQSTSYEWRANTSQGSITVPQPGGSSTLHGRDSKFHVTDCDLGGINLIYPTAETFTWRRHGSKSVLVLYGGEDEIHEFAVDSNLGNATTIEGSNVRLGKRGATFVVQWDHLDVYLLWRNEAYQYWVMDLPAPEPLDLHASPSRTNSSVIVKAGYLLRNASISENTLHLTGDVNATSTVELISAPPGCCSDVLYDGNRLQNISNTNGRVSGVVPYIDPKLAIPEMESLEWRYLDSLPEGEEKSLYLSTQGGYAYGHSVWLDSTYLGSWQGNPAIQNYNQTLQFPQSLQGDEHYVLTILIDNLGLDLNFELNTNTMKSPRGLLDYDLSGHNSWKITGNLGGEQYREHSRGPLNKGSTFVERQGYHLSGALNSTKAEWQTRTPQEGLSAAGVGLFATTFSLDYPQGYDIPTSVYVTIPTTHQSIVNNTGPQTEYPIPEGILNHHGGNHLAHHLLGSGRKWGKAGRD

[6] = biological target: Alpha-galactosidase (Coffea arabica) (UniProt Q42656); assay: Inhibition of coffee bean alpha-galactosidase at 1 mM
[7] = Inhibition of bovine liver beta-N-acetylglucosaminidase; parameters: species or system Bos taurus
[8] = organism: Bos taurus; assay: Inhibition of bovine liver beta-N-acetylglucosaminidase at 240 uM
[9] = system: Helix pomatia; assay: Inhibition of snail beta-mannosidase at 1 mM
[10] = organism: Bos taurus; assay: Inhibition of bovine liver beta-N-acetylglucosaminidase at 1 mM
[11] = system: Aspergillus niger; assay: Inhibition of Aspergillus niger amyloglucosidase at 1 mM
[12] = system: Canavalia ensiformis; assay: Inhibition of jack bean alpha-mannosidase at 1 mM
[13] = system: Canavalia ensiformis; assay: Inhibition of jack bean beta-N-acetylglucosaminidase at 1 mM
[14] = biological target: Beta-galactosidase (Escherichia coli) (UniProt Q8VNN2); assay: Inhibition of Escherichia coli beta-galactosidase at 1 mM
[15] = system: Canavalia ensiformis; assay: Inhibition of jack bean beta-N-acetylglucosaminidase at 240 uM
[16] = system: Prunus dulcis; assay: Inhibition of almond beta-glucosidase at 1 mM
[17] = system: Saccharomyces cerevisiae; assay: Inhibition of yeast alpha-glucosidase at 1 mM

Beta-galactosidase (Escherichia coli), sequence (Q8VNN2 whole entry, looked up): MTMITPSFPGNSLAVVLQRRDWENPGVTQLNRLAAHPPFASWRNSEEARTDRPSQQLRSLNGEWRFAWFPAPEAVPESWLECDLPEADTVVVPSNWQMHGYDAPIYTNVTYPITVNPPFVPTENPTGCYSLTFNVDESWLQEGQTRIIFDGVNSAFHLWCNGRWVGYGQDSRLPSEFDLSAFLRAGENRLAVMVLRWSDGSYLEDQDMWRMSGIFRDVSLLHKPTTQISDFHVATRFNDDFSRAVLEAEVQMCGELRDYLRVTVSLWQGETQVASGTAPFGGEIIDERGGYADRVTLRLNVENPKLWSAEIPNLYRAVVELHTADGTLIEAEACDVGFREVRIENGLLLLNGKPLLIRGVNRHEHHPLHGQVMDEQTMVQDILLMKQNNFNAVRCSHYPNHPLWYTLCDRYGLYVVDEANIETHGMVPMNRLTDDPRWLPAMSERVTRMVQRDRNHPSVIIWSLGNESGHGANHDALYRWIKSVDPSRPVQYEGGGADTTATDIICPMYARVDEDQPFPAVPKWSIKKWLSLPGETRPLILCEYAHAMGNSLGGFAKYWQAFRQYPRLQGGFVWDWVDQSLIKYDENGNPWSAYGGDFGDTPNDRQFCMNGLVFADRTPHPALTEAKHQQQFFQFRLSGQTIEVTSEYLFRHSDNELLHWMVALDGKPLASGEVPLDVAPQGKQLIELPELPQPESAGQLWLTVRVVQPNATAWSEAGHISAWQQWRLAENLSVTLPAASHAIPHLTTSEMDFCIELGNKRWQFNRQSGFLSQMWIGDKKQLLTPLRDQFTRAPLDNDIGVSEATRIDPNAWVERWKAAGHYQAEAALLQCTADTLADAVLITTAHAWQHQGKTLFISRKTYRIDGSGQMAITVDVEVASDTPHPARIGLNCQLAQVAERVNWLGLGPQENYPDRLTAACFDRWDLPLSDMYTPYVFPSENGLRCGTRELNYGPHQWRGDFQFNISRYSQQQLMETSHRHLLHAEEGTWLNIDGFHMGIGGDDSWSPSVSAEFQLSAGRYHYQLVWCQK
Alpha-galactosidase (Coffea arabica), sequence (Q42656 16-378 limits assumed): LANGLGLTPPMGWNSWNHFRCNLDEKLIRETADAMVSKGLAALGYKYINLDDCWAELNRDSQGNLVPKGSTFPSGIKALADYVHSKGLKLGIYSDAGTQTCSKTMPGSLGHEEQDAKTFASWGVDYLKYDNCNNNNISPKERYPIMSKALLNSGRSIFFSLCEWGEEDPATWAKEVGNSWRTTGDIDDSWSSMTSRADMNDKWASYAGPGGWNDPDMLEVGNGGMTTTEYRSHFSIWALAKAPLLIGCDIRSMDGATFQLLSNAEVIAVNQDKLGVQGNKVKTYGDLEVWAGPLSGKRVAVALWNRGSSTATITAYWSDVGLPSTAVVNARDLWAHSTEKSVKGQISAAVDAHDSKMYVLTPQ

inhibition [1] | inhibition [2] | inhibition [3] | Ki [4] [nM] | inhibition [5] | inhibition [6] | Ki [7] [nM] | inhibition [8] [%] | inhibition [9] | inhibition [10] [%] | inhibition [11] | inhibition [12] | inhibition [13] [%] | inhibition [14] | inhibition [15] [%] | inhibition [16] | inhibition [17] | SMILES
inactive | 28% | inactive | 400 | inactive | inactive | 700 | 22 | inactive | 99 | 19% | inactive | 99 | inactive | 22 | inactive | inactive | CC(=O)N[C@H]1CNC[C@H](O)[C@@H](O)[C@@H]1O
inactive | inactive | inactive | – | inactive | inactive | – | – | inactive | 68 | inactive | inactive | 93 | inactive | – | inactive | inactive | CC(=O)N[C@@H]1CNC[C@H](O)[C@@H](O)[C@@H]1O
inactive | inactive | inactive | 500 | inactive | inactive | 600 | – | inactive | 99 | inactive | 25% | 98 | inactive | – | inactive | inactive | CC(=O)N[C@@H]1[C@@H](O)[C@H](O)[C@@H](CO)NC[C@H]1O
inactive | inactive | inactive | 30000 | inactive | inactive | – | – | inactive | 74 | inactive | inactive | 88 | inactive | – | inactive | inactive | CC(=O)N[C@H]1CN[C@H](CO)[C@@H](O)[C@H](O)[C@@H]1O
